The test system of assay [1] is Panc89 cells. The experiment in a line: Total proteome analysis, DIA mass spectrometry, Panc89 cells. It is filed as cell-based, H. sapiens. To be noted: DIA Panc89, 1 µM. The procedure:
(§1) Following treatment, cells were harvested, washed twice with PBS, and pellets were flash frozen in liquid nitrogen before being stored at −80 °C. Samples were prepared using the single-pot, solid-phase-enhanced sample-preparation (SP3) strategy. All buffers and solutions were prepared with mass spectrometry (MS)-grade water (Honeywell). Cell pellets were taken up in 100 µL 1x sample buffer (50 mM Hepes pH 8.0, 1% (wt/v) SDS, 1% (v/v) NP-40, 10 mM TCEP, 40 mM chloroacetamide) and samples were heated at 90 °C for 5 min prior to sonication with a Bioruptor UCD-300 (Diagenode) for ten cycles of 1 min pulse and 30 s pause at high power. The samples were then supplemented with Benzonase (20 U/sample) and sonified for 5 min in a water bath (Bandelin) followed by 30 min incubation at […].
The protein extracts were then centrifuged (20000 ×g, RT, 40 min) and the protein concentration of the cleared lysates was determined using the Pierce 660 nm Protein Assay Reagent (#22660; Thermo Scientific) with the Ionic Detergent Compatibility Reagent (#22663; Thermo Scientific) according to the manufacturers’ instructions. Next, 15 µg of total protein per sample in a volume of 100 µL sample buffer was transferred to a 500 µL 96-well plate and treated with 7 U of benzonase (#71206; Merck Millipore) in dilution buffer (20 mM Hepes pH 8.0, 2 mM MgCl2) at 37 °C for 30 min with agitation at 1500 rpm. […]

Another assay addresses T1, USP7 (Homo sapiens, UniProt Q93009).
T1 construct: allowed the analysis of endogenous USP7 degradation in both cell lines; endogenous in cells; host or cells: Panc89 (PDAC) and Ma-Mel-47 (melanoma) cells
The experiment in a line: Immunofluorescence staining of USP7, Panc89 cells. Format: cell-based. The following applies: Panc89, 1 µM, 24 h. How it is done:
Panc89 cells were seeded on 96-well plates (89626, Ibidi) and treated with either DMSO or compound for the indicated time and concentration. Cells were then fixed with 4% PFA in PBS for 20 min, permeabilized with 0.1% Triton X-100 in PBS for 10 min and incubated in blocking buffer containing 2% BSA in PBS for 1 h. Three 10 min washes with PBS were performed between different steps. Cells were treated with primary antibody anti-USP7 (ab190183, Abcam, rabbit, 1:500) in blocking solution for 1 h at RT. […] Finally, cells were stained with DAPI (Invitrogen, 1 µg/mL) in PBS for 10 min and mounted with aqueous mounting medium (50001, Ibidi) for microscopy. Plates were imaged on a fully automated inverted EVOS M7000 microscope system (Invitrogen) with X-Apo 20x air objective (0.8 NA, Olympus, AMEP4906) using DAPI (AMEP4950), GFP (AMEP4951), RFP (AMEP4952), and Cy5 (AMEP4956) LED light cubes. Images were captured using a high-sensitivity 3.2 MP monochrome CMOS camera and were processed with Omero (v. web 5.28.0).

For assay [2], the system named is Panc89 cells. The assay is described as follows: Total proteome analysis, DDA mass spectrometry, Panc89 cells. It is filed as cell-based, H. sapiens. The following applies: DDA Panc89, 1 µM. How it is done:
as §1
The protein extracts were then centrifuged (20000 ×g, RT, 40 min) and the protein concentration of the cleared lysates was determined using the Pierce 660 nm Protein Assay Reagent (#22660; Thermo Scientific) with the Ionic Detergent Compatibility Reagent (#22663; Thermo Scientific) according to the manufacturers’ instructions. Next, 15 µg of total protein per sample in a volume of 100 µL sample buffer was transferred to a 500 µL 96-well plate and treated with 7 U of benzonase (#71206; Merck Millipore) in dilution buffer (20 mM Hepes pH 8.0, 2 mM MgCl2) at 37 °C for 30 min with agitation at 1500 rpm. After Benzonase treatment samples were heated to 90 °C for 5 min and after cooling down to room temperature, iodoacetamide to a final concentration of 10 mM was added for complete alkylation of cysteines (37 °C, 15 min, 1000 rpm, in the dark).
Then, 3 µL of a 50 µg/µL 1:1 mixture of hydrophilic (#45152105050250) and hydrophobic (#65152105050250) carboxylate modified Sera-Mag SpeedBeads (Cytiva), that were washed twice with MS-grade water, were added to the samples. The next steps were carried out at room temperature unless noted otherwise. Afterwards, the samples were mixed shortly (1 min, 1000 rpm) and collected by short centrifugation (10 s, 200 ×g). […]

Assay [3] concerns Panc89 cells. The assay is described as follows: Confluence measurement (cell growth), Panc89. It is filed as cell-based, human. The following applies: Panc89, 1-10 µM, 72 h, 25 mM or 5 mM D-glucose.

T1 sequence (Q93009 whole entry): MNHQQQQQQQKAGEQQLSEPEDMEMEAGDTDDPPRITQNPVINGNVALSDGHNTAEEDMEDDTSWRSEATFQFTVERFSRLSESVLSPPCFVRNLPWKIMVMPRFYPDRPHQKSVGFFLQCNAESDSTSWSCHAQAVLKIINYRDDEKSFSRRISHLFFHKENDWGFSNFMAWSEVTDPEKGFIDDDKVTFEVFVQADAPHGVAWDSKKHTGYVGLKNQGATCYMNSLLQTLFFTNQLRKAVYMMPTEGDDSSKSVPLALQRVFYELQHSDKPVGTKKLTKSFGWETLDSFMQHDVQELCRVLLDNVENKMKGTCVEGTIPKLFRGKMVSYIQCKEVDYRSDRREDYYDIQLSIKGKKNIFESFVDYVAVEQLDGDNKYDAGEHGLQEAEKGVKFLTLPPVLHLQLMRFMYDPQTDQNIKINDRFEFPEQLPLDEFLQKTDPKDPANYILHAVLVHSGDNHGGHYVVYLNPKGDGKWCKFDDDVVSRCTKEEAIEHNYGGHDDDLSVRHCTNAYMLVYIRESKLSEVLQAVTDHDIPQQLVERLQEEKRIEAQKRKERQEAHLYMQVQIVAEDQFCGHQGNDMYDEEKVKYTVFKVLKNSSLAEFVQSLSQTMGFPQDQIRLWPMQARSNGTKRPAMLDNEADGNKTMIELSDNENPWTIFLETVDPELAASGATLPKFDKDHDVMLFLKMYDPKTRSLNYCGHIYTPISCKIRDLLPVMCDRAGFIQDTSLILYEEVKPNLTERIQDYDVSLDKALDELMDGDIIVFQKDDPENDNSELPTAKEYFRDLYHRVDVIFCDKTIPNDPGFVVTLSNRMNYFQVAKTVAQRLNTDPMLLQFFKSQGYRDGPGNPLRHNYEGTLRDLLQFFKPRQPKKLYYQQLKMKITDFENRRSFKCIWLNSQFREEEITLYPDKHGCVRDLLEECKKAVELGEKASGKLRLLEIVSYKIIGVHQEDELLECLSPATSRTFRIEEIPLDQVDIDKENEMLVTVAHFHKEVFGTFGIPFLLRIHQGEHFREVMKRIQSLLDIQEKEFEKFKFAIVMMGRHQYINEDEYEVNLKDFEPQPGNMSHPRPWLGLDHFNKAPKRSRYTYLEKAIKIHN

In the case of `Cc1ncsc1-c1ccc(CNC(=O)[C@@H]2C[C@H](O)CN2C(=O)[C@@H](NC(=O)[C@H]2CC[C@H](C(=O)N3CCN(c4ccc(-n5ncc6c(=O)n(CC7(O)CCN(C(=O)C[C@@H](C)c8ccccc8)CC7)cnc65)cc4)CC3)CC2)C(C)(C)C)cc1` [NK245], the “Changes to the proteome (in words)” value with Panc89 cells [1] (72 h) is on record as “only showed minimal changes to the proteome”.

`Cc1ncsc1-c1ccc([C@H](C)NC(=O)[C@@H]2C[C@@H](O)CN2C(=O)[C@@H](NC(=O)[C@H]2CC[C@H](C(=O)N3CCN(c4ccc(-n5ncc6c(=O)n(CC7(O)CCN(C(=O)C[C@@H](C)c8ccccc8)CC7)cnc65)cc4)CC3)CC2)C(C)(C)C)cc1` [NK250]: the “USP7 immunofluorescence signal (in words)” value at USP7 is given as “strongly reduced”. The figures for the “Proteins significantly decreased (in words)” value with Panc89 cells [1] (6 h) and in the assay on Panc89 cells [2] (6 h) were “USP7 was the only protein that was significantly decreased” and “USP7 was the only protein significantly decreased”, respectively. Also, the “Reduction of USP7 protein levels” value with Panc89 cells [2] (after three days) was “more than 100 fold”. Also, in the assay on Panc89 cells [3], the “Cell growth (in words)” value was “not affected”.

(Values after PMC13172357 (Nature Communications, 2026).)
